We go through 15 compounds from PubChem BioAssay (NCI).

Common to all, as to assay: growth of human tumour cells (NCI), 48 h
Experiment [1] relates to A549 NSCLC.
Experiment [2] deals with CCRF-CEM leukemia.
For experiment [3], the system named is DU-145 prostate.
The subject of experiment [4] is EKVX NSCLC.
Experiment [5] concerns IGROV1 ovarian.
Experiment [6] deals with MCF7 breast.
Experiment [7] relates to NCI-H226 lung.
Experiment [8] concerns OVCAR-5 ovarian.
Experiment [9] deals with RXF 393 renal.
Experiment [10] has as its system TK-10 renal.
Experiment [11] deals with MDA-N.

SMILES strings stand for the structures. Values joined by “and” are separate entries in the source; they are usually repeats but may differ in a detail not shown here. Equal entries are not always repeated.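 Values below derive from 48-hour exposures of cells grown in 96-well plates, with endpoints linearly interpolated between the two concentrations bracketing the appropriate inhibition level. At the GI50, growth is halved. At the TGI there is no net growth.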

Take `COc1ccccc1/C=C(/C)[N+](=O)[O-]`: the TGI is 8.66 µM and 5.18 µM in experiment [1]; 13 µM and > 100 µM in experiment [2]; 3.12 µM and 2.36 µM in [3]; 20.1 µM and 12.3 µM in experiment [4]; 5.18 µM and 3.72 µM in experiment [5]; over 100 µM in experiment [6]. In addition, the TGI is 4.22 µM and 3.64 µM in [7]; 13.4 µM and 27.3 µM in [8]; 4.74 µM in experiment [9]; 13 µM and 4.21 µM in experiment [10]. The GI50 is 0.593 µM in [6]; 2.89 µM and 6.42 µM in experiment [8]; 1.74 µM in experiment [9].
Take `Nc1nc2c(N)cc(C(F)(F)F)cc2nc1-c1ccccc1`: the TGI in [1], in experiment [2], in experiment [4], in experiment [5], in [7] and in experiment [8] was over 100 µM in each case. Further, the TGI in [9] and in experiment [10] was over 100 µM each time.
`Cc1ccc(C(=O)CC2(O)C(=O)Nc3c(C)cc(Cl)cc32)cc1` (centres undefined): the TGI in experiment [1], in experiment [2], in [4], in [7], in [8] and in [9] was over 100 µM each time. The TGI in [10] was over 100 µM.
Regarding `CC1=C(c2nc3ccccc3s2)C(=O)OC1(C)C`, the TGI in experiment [1], in [2], in experiment [4], in experiment [7] and in [8] was over 100 µM throughout.
As for `O=C1[C@@H]2C(c3ccc(Br)cc3)=NO[C@@H]2C(=O)N1c1ccc(Cc2ccc(N3C(=O)[C@H]4C(c5ccc(Br)cc5)=NO[C@H]4C3=O)cc2)cc1`, the TGI was over 3.48 µM in experiment [1]; over 40 µM in experiment [2]; over 3.48 µM in experiment [4]; over 40 µM in [5]; over 40 µM in [8]; over 40 µM in experiment [9]. Also, the TGI in experiment [10] was over 40 µM. Moreover, the GI50 in experiment [2], in [5], in experiment [8] and in [9] was over 40 µM each time.
For the compound `O=C(Cc1ccccc1)NN1C(=O)C(Cl)C1c1ccccc1Cl` (centres undefined), the TGI in experiment [1] was over 100 µM; in experiment [2], 55.8 µM; in experiment [4] it was over 100 µM; in experiment [5] it was over 93.1 µM; in [7], over 100 µM; in experiment [8], over 100 µM. Further, the TGI in [9] and in experiment [10] was over 100 µM each time.
As for `COc1cc2ccc3c4ccccc4cnc3c2cc1OC`, the TGI in experiment [1], in [2], in experiment [4], in experiment [5], in [7] and in experiment [8] was over 100 µM in each case. The TGI in experiment [9] and in experiment [10] was over 100 µM each time.
Regarding `CCOc1ccccc1N=Nc1ccc2oc(=O)c(C(C)=O)cc2c1`, the TGI in experiment [1], in [2], in [4], in experiment [5], in [8] and in [10] was over 100 µM throughout.
`COc1ccc(/C=c2\c(=O)[nH]c3nc4ccccc4c(=O)n23)cc1`: the TGI in [1], in experiment [2], in experiment [3], in experiment [4], in experiment [5] and in [6] was over 100 µM each time. Also, the TGI in [7], in [8], in experiment [9] and in experiment [10] was over 100 µM throughout.
For `CO/C(N)=C(\C#N)N=Cc1ccc2ccccc2c1`, the TGI in experiment [1], in [2], in experiment [3], in [4], in experiment [5] and in [11] was over 100 µM in each case. The TGI in [7], in experiment [9] and in experiment [10] was over 100 µM in each case.
Turning to `CCOC(=O)c1c[nH]c(C(=O)OCC)c1-c1cccn1-c1ccccc1`, the TGI in experiment [1] was over 100 µM; in experiment [2], 52.2 µM; in experiment [3], over 100 µM; in experiment [4], over 100 µM; in experiment [5] it was 51.9 µM; in [11], 99.2 µM. Further, the TGI is 98.8 µM in [7], over 100 µM in experiment [8], 43 µM in [9] and over 100 µM in experiment [10].
Take `N#CC(NNC(=O)Cc1ccccc1)c1cccc(O)c1` (centres undefined): the TGI in experiment [1], in [2], in experiment [5], in experiment [7], in experiment [8] and in experiment [9] was over 100 µM throughout. Moreover, the TGI in experiment [10] was over 100 µM.
Take `COC(=O)C1CC2C=CC=CC(=O)C2(C)C1` (centres undefined): the TGI in [1] was over 100 µM; in experiment [2] it was 71.8 µM; in experiment [4] it was over 100 µM; in experiment [5], over 100 µM; in experiment [7] it was over 100 µM; in experiment [8], over 100 µM. Moreover, the TGI in experiment [10] is over 100 µM.
For the compound `CCc1n[nH]c(=O)n1CCCCCCCCn1c(CC)n[nH]c1=O`, the TGI in experiment [1], in experiment [2], in experiment [4], in [5], in experiment [6] and in [11] was over 100 µM in each case. The TGI in experiment [7], in [8], in [9] and in experiment [10] was over 100 µM in each case.
Take `CN(C)c1ccc(/C=C/C(=O)c2ccc(O)cc2)cc1`: the TGI was over 100 µM in experiment [1]; 17.4 µM in experiment [2]; 63.5 µM in experiment [3]; over 100 µM in experiment [4]; over 100 µM in [5]; over 100 µM in experiment [6]. Moreover, the TGI in experiment [7], in experiment [8], in experiment [9] and in experiment [10] was over 100 µM each time.
